Earlier results as cited in US20230167447A1, “Compositions for FNIP1/FNIP2 Gene Modulation and Methods Thereof” (Genetic Intelligence, Inc, priority 2021, published 2023).

System: ALS patients

SMILES: CC1=NN(c2ccccc2)C(=O)C1 [Edaravone, edaravone]
- decline in physical function in ALS patients: slows the decline in physical function
- subset of patients for which effective: around 7%
